Measurements published in patent US20030086923A1, “Method for the prevention and/or treatment of atherosclerosis” (priority 1999, published 2003).
One block for each molecule: values may come before it.

Experiments:
THP-1 macrophages = assay: Stimulation of cholesterol efflux from cultured THP-1 macrophages; assay type: cell-based, human; details: for EC50: Homo sapiens, THP-1
From the text: Stimulation of Cholesterol Efflux from Cultured Cells
Patients with Tangier disease have mutations in the ABC1 gene and have very low HDL levels. Cultured cells from these patients are defective in cholesterol efflux (Francis et al. (1995) J. Clin. Invest. 96:78-87). Therefore, induction of ABC1 mRNA should lead to increased cholesterol efflux and increased HDL levels (Francis et al. (1999) Clinica Chimica Acta 286:219-230). TIIP-1 cells were used to determine whether induction of ABC1 mRNA by Compound 1 would increase cholesterol efflux. Specifically, cultured human THP-1 cells were stimulated to differentiate into macrophages by incubation with 100 nM tetradecanoyl phorbol acetate for three days, as described above. After differentiation, the TUP-1 macrophages were labeled with ^3H-cholesterol by incubation for 24 hours with 10 μCi/ml ^3H-cholesterol in Complete RPMI media containing 0.1% lipid-free bovine serum albumin (BSA) plus 100 nM tetradecanoyl phorbol acetate. After labeling, the cells were incubated for 24 hours in Complete RPMI media with 0.1% lipid-free bovine serum albumin (BSA) to allow for equilibration of cellular cholesterol pools. Cholesterol efflux was then measured over the following 24 hours by incubating the cells in Complete RPMI media containing 10 μg/ml of apoA-I as cholesterol acceptor, and either Compound 1 or DMSO as control.

LXR = assay: Activity on LXR (assay not specified)
ABC1 mRNA = assay: Induction of ABC1 mRNA levels in THP-1 macrophages; assay type: cell-based; details: Homo sapiens, ABC-1, 15 μM, 6 hours, vs DMSO control, read-out: Fold Induction of ABC1 mRNA (Mean ± SEM)
Method: Induction of ABC1 mRNA levels
Cultured human THP-1 cells were used. All cell culture incubations were performed at 37° C. under 95% air/5% carbon dioxide. Cells were grown in Complete RPMI medium plus 10% FCS (Fetal Calf Serum). Complete RPMI medium is defined as RPMI medium (Sigma Cat.# R8005) containing […], 1 mM Na Pyruvate, 2 mM L-Glutamine, and Antibiotic-Antimyotic Solution (Sigma Cat.# A9909: 100U/ml Penicillin, 0.1 mg/ml Streptomycin, 0.251l/ml Amphotericin B). Cells were differentiated into macrophages by incubation in Complete RPMI medium plus 10% FCS (Fetal Calf Serum) plus 100 nM tetradecanoyl phorbol acetate for three days. After differentiation, the THP-1 macrophages were incubated in Complete RPMI medium plus 10% FCS (Fetal Calf Serum) with the test LXR agonist. After 6 hours at 37° C., the cells were harvested and total RNA prepared using the phenol/guanidine isothiocyanate method as supplied and described by Molecular Research Center, Inc. (TRI REAGENTφ Cat. No. TR 118). ABC1 mRNA levels in the total RNA were measured using the TaqMan® mRNA quantitation system, following protocols published by the manufacturer (Perkin-Elmer). The oligonucleotide PCR primers used to detect ABC1 were:
The oligonucleotide probe used was:
ABC1 mRNA levels in each sample were normalized to the mRNA levels for the 23 kDa highly basic protein. […]

human GST-LXRα receptor = target: T1, human GST-LXRα receptor (Homo sapiens, UniProt Q13133); assay: Radioligand competition binding scintillation proximity assay, LXRα
T1 construct: made in house; host or cells: E. coli (pGEX-KT vector)
T1 sequence (Q13133 164-447): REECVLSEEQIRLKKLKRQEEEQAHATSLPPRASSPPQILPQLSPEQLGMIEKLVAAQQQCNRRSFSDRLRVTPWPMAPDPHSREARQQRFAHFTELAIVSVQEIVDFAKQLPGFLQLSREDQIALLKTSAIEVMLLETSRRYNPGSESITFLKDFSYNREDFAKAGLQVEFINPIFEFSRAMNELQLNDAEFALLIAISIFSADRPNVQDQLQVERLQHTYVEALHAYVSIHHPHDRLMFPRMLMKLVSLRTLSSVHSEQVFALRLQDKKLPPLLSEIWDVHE
From the text: (§1) Radioligand Competition Binding Scintillation Proximity Assays:
(§2) Preparation of Recombinant Human LXRα and LXRβ:
(§3) Human LXRα and LXRβ were expressed as GST-fusion proteins in E. coli. The ligand binding domain cDNAs for human LXRα (amino acids 164-447) and human LXRβ (amino acids 149-455) were subcloned into the pGEX-KT expression vector (Pharmacia). E. coli containing the respective plasmids were propagated, induced, and harvested by centrifugation. The resuspended pellet was broken in a French press and debris was removed by centrifugation. Recombinant human LXR receptors were purified by affinity chromatography on glutathione sepharose and receptor was eluted with glutathione. Glycerol was added to a final concentration of 50% to stabilize the receptor and aliquots were stored at −80° C.
(§4) After incubation for ˜16 h at 15° C. with shaking, the assay plates were counted in a Packard Topcount.

[1] = target: T2, human GST-LXRβ ligand binding domain receptor (Homo sapiens, UniProt P55055); assay: Radioligand competition binding scintillation proximity assay, LXRβ
T2 construct: human LXRβ (amino acids 149-455) were subcloned into the pGEX-KT expression vector; made in house; host or cells: E. coli (pGEX-KT vector)
T2 sequence (P55055 149-455): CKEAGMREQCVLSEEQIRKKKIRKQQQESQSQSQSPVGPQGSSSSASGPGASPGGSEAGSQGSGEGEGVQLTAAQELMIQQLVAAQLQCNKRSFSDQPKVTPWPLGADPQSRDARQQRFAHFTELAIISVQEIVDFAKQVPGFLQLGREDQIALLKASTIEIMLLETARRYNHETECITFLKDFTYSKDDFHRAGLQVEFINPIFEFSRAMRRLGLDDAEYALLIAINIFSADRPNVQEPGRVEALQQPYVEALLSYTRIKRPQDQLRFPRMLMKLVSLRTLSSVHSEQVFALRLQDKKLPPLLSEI
From the text: as §1, §2, §3, §4

LXRα-GAL4 fusion protein = target: T3, LXRα-GAL4 fusion protein (Homo sapiens, UniProt Q13133); assay: LXRα/GAL4 transactivation assay in HEK-293 cells; assay type: cell-based; details: 48 h
T3 construct: expressed in transfected cells; host or cells: HEK-293 (pcDNA3-LXRα/GAL4)
T3 sequence (Q13133 209-447 limits assumed): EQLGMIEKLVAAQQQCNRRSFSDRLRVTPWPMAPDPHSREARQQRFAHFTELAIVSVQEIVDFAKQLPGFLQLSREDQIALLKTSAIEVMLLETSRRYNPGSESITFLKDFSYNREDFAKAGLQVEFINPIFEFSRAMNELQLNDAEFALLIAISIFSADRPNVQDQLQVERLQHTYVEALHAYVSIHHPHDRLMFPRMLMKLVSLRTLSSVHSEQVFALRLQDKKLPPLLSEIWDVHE
Method: (§5) Expression constructs were prepared by inserting the ligand binding domain (LBD) of human LXRα and LXRβ cDNAs adjacent to the yeast GAL4 transcription factor DNA binding domain (DBD) in the mammalian expression vector pcDNA3 to create pcDNA3-LXRα/GAL4 and pcDNA3-LXRβ/GAL4, respectively. The GAL4-responsive reporter construct, pUAS(5×)-tk-luc, contained 5 copies of the GAL4 response element placed adjacent to the thymidine kinase minimal promoter and the luciferase reporter gene. The transfection control vector, pEGFP-N1, contained the Green Fluorescence Protein (GFP) gene under the regulation of the cytomegalovirus promoter.
(§6) HEK-293 cells were seeded at 40,000 cells/well in 96 well plates in Dulbecco's modified Eagle medium (high glucose) containing 10% charcoal stripped fetal calf serum (FCS), 100 units/ml Penicillin G and 100 μg/ml Streptomycin sulfate at 37° C. in a humidified atmosphere of 5% CO2. After 24 h, transfections were performed with Lipofectamine (Gibco-BRL, Gaithersburg, Md.) according to the instructions of the manufacturer. […] Luciferase activity in cell extracts was determined using Luciferase Assay Buffer (Promega) in a ML3000 luminometer (Dynatech Laboratories). GFP expression was determined using the Tecan Spectrofluor Plus at excitation wavelength of 485 nm and emission at 535 nm. […]

LXRβ-GAL4 fusion protein = target: T4, LXRβ-GAL4 fusion protein (Homo sapiens, UniProt P55055); assay: LXRβ/GAL4 transactivation assay in HEK-293 cells; assay type: cell-based; details: 48 h
T4 construct: expressed in transfected cells; host or cells: HEK-293 (pcDNA3-LXRβ/GAL4)
T4 sequence (P55055 222-460 limits assumed): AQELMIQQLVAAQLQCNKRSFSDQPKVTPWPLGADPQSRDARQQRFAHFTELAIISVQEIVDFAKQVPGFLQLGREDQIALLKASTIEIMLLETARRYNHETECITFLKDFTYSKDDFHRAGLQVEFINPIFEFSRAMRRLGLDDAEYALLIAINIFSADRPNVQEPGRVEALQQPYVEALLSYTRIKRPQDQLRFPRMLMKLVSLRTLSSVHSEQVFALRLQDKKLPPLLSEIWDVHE
Method: as §5, §6

[2] = HDL-raising activity in hamsters; assay type: in vivo, hamster; details: oral gavage 10 mg per kg twice per day, seven days, p=0.01
Method: HDL-Raising Activity: Hamsters were given Compound 4 by oral gavage at 10 mg per kg body weight, twice per day, for seven days. Blood was then collected and serum HDL cholesterol measured.

Structure (SMILES): CC(C)CC[C@H](O)[C@@H](C)[C@H]1CC[C@H]2[C@@H]3CC=C4C[C@@H](O)CC[C@]4(C)[C@H]3CC[C@]12C [22-(S)-hydroxy-cholesterol, reference compound]
Stimulation of cholesterol efflux (in words) (THP-1 macrophages): did not stimulate cholesterol efflux at all
Activity on LXR (in words) (LXR): inactive

Structure (SMILES): CC(C)CC[C@@H](O)[C@@H](C)[C@H]1CC[C@H]2[C@@H]3CC=C4C[C@@H](O)CC[C@]4(C)[C@H]3CC[C@]12C [Compound 2, 22(R)-hydroxycholesterol, reference compound]
fold induction at 15 µM (ABC1 mRNA): 6.7 ± 1.2
Stimulation of cholesterol efflux (THP-1 macrophages; 5 μM, p<0.001): 57%

IC50 (human GST-LXRα receptor): 112 nM
IC50 [1]: 442 nM
EC50 (THP-1 macrophages): 120 nM
Structure (SMILES): CC(C)N(C(=O)[C@H]1CCC2C3CC=C4N(C)C(=O)CCC4(C)C3CCC21C)C(C)C (stereo partly shown) [Compound 3]

Structure (SMILES): CCCc1c(OCCCN2C(=O)CCNC2=O)ccc2c(C(F)(F)F)noc12 [Compound 4, 4,5-Dihydro-1-(3-(3-trifluoromethyl-7-propyl-benzisoxazol-6-yloxy)propyl)-2,6-pyrimidinedione]
IC50 (human GST-LXRα receptor): 1 nM
IC50 [1]: 72 nM
EC50 (LXRα-GAL4 fusion protein): 183 nM
EC50 (LXRβ-GAL4 fusion protein): 360 nM
EC50 (THP-1 macrophages): 63 nM
Increase of serum HDL cholesterol levels vs vehicle control [2]: 21%
